PubChem BioAssay AID330 (DTP/NCI, 2004)
“And” between values parts separate entries of the source, which are not always exact repeats. Identical values can stand only once. Toxic doses and inconclusive results are not listed. How the source made its calls: active means survival T/C of 150% or more; inactive means T/C below 125% in these data.

Test system: P388 leukemia ip, CD2F1 mice, survival T/C
Assay: NCI In Vivo Anticancer Drug Screen. Data for tumor model P388 Leukemia (intraperitoneal) in CD2F1 (CDF1) mice
Conditions: endpoint: median survival time, higher = longer survival
Method in brief: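 Mice carrying the transplanted tumor received test compound or vehicle. Survival was recorded in each group, and the value is the treated-group measurement divided by that of the vehicle-treated control group.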

[1] = dose: 60.0 mg/kg/injection, schedule: Q01DX005 (ip), vehicle: saline with Tween-80
[2] = dose: 120.0 mg/kg/injection, schedule: Q01DX005 (ip), vehicle: saline with Tween-80
[3] = dose: 240.0 mg/kg/injection, schedule: Q01DX005 (ip), vehicle: saline with Tween-80
[4] = dose: 100.0 mg/kg/injection, schedule: Q01DX009 (ip), vehicle: saline with Tween-80
[5] = dose: 100.0 mg/kg/injection, schedule: Q04DX003 (ip), vehicle: saline with Tween-80
[6] = dose: 200.0 mg/kg/injection, schedule: Q04DX003 (ip), vehicle: saline with Tween-80
[7] = dose: 400.0 mg/kg/injection, schedule: Q04DX003 (ip), vehicle: saline with Tween-80
[8] = dose: 50.0 mg/kg/injection, schedule: Q01DX009 (ip), vehicle: saline with Tween-80

Measured: T/C

CCNC(=O)OCc1c(-c2ccccc2)nc2n1CCS2
inactive: dose: 6.25 mg/kg/injection, schedule: Q01DX001 (ip), vehicle: Klucel (hydroxypropylcellulose) (HPC) 104 % of control | dose: 12.5 mg/kg/injection, schedule: Q01DX001 (ip), vehicle: Klucel (hydroxypropylcellulose) (HPC) 98 % of control and 115 % of control | dose: 25.0 mg/kg/injection, schedule: Q01DX001 (ip), vehicle: Klucel (hydroxypropylcellulose) (HPC) 114 % of control and 93 % of control | dose: 50.0 mg/kg/injection, schedule: Q01DX001 (ip), vehicle: Klucel (hydroxypropylcellulose) (HPC) 101 % of control and 106 % of control | dose: 75.0 mg/kg/injection, schedule: Q01DX001 (ip), vehicle: Klucel (hydroxypropylcellulose) (HPC) 108 % of control

O=C1NN=C(C(O)c2ccccc2)C1(O)c1ccccc1 (stereo not drawn)
inactive: [1] 91 % of control | dose: 100.0 mg/kg/injection, schedule: Q04DX002 (ip), vehicle: distilled water + alcohol 103 % of control | [2] 98 % of control | dose: 200.0 mg/kg/injection, schedule: Q04DX002 (ip), vehicle: distilled water + alcohol 98 % of control | [3] 93 % of control | dose: 400.0 mg/kg/injection, schedule: Q04DX002 (ip), vehicle: distilled water + alcohol 94 % of control

CCOC(=O)CNC(=O)NNC(=O)OCC
inactive: dose: 6.25 mg/kg/injection, schedule: Q01DX009 (ip), vehicle: saline 98 % of control | dose: 12.5 mg/kg/injection, schedule: Q01DX009 (ip), vehicle: saline 91 % of control | dose: 50.0 mg/kg/injection, schedule: Q01DX009 (ip), vehicle: saline 100 % of control | dose: 100.0 mg/kg/injection, schedule: Q01DX009 (ip), vehicle: saline 100 % of control | dose: 200.0 mg/kg/injection, schedule: Q01DX009 (ip), vehicle: saline 100 % of control

O=C1c2ccccc2CC1(Br)C(Br)c1ccccc1 (stereo not drawn)
inactive: [4] 109 % of control | [5] 96 % of control | dose: 200.0 mg/kg/injection, schedule: Q01DX009 (ip), vehicle: saline with Tween-80 118 % of control | [6] 92 % of control | dose: 400.0 mg/kg/injection, schedule: Q01DX009 (ip), vehicle: saline with Tween-80 109 % of control | [7] 92 % of control

COC(=O)C1CC(OC(C)=O)C(=O)[C@H]2C1(C)CC[C@H]1C(=O)O[C@H](c3ccoc3)CC12C (stereo partly drawn)
inactive: dose: 19.0 mg/kg/injection, schedule: Q01DX005 (ip), vehicle: Klucel (hydroxypropylcellulose) (HPC) 94 % of control | dose: 38.0 mg/kg/injection, schedule: Q01DX005 (ip), vehicle: Klucel (hydroxypropylcellulose) (HPC) 87 % of control | dose: 76.0 mg/kg/injection, schedule: Q01DX005 (ip), vehicle: Klucel (hydroxypropylcellulose) (HPC) 90 % of control

C=CC(C)(C)n1cc(C2=C(O)C(=O)C(c3cn(C(C)(C)C=C)c4ccccc34)=C(O)C2=O)c2ccccc21
inactive: dose: 2.5 mg/kg/injection, schedule: Q01DX009 (ip), vehicle: carboxymethylcellulose (CMC) 101 % of control | dose: 5.0 mg/kg/injection, schedule: Q01DX009 (ip), vehicle: carboxymethylcellulose (CMC) 103 % of control and 88 % of control | dose: 6.25 mg/kg/injection, schedule: Q01DX009 (ip), vehicle: Klucel (hydroxypropylcellulose) (HPC) 99 % of control | dose: 10.0 mg/kg/injection, schedule: Q01DX009 (ip), vehicle: carboxymethylcellulose (CMC) 108 % of control and 93 % of control | dose: 12.5 mg/kg/injection, schedule: Q01DX009 (ip), vehicle: Klucel (hydroxypropylcellulose) (HPC) 100 % of control | dose: 18.0 mg/kg/injection, schedule: Q01DX009 (ip), vehicle: Klucel (hydroxypropylcellulose) (HPC) 95 % of control | dose: 20.0 mg/kg/injection, schedule: Q01DX009 (ip), vehicle: carboxymethylcellulose (CMC) 120 % of control and 90 % of control | dose: 25.0 mg/kg/injection, schedule: Q01DX009 (ip), vehicle: Klucel (hydroxypropylcellulose) (HPC) 99 % of control | dose: 26.0 mg/kg/injection, schedule: Q01DX009 (ip), vehicle: Klucel (hydroxypropylcellulose) (HPC) 104 % of control | dose: 40.0 mg/kg/injection, schedule: Q01DX009 (ip), vehicle: Klucel (hydroxypropylcellulose) (HPC) 90 % of control | dose: 40.0 mg/kg/injection, schedule: Q01DX009 (ip), vehicle: carboxymethylcellulose (CMC) 114 % of control | dose: 50.0 mg/kg/injection, schedule: Q01DX009 (ip), vehicle: Klucel (hydroxypropylcellulose) (HPC) 100 % of control | dose: 100.0 mg/kg/injection, schedule: Q01DX009 (ip), vehicle: Klucel (hydroxypropylcellulose) (HPC) 113 % of control

CCN(CC)c1ccc(C(=C2C=CC(=[N+](CC)CC)C=C2)c2ccc(N(CC)CC)cc2)cc1
inactive: dose: 50.0 mg/kg/injection, schedule: Q01DX005 (ip), vehicle: saline with Tween-80 113 % of control and 120 % of control

CC1=NN(C(=O)c2cccnc2)C(=O)C1N=Nc1ccc(S(=O)(=O)N=C(N)N)cc1 (stereo not drawn)
inactive: [5] 91 % of control | [6] 92 % of control | [7] 88 % of control

CCc1ccccc1C1(Br)C(=O)c2ccccc2C1=O
inactive: dose: 100.0 mg/kg/injection, schedule: Q04DX002 (ip), vehicle: saline 102 % of control | dose: 200.0 mg/kg/injection, schedule: Q04DX002 (ip), vehicle: saline 100 % of control | dose: 400.0 mg/kg/injection, schedule: Q04DX002 (ip), vehicle: saline 101 % of control

COc1ccc2c(c1)CCC1C2CCC2(C)/C(=N/O)C3OC3C12 (stereo not drawn)
inactive: dose: 12.5 mg/kg/injection, schedule: Q01DX009 (ip), vehicle: saline with Tween-80 94 % of control and 95 % of control | dose: 25.0 mg/kg/injection, schedule: Q01DX009 (ip), vehicle: saline with Tween-80 110 % of control and 94 % of control | [8] 101 % of control and 94 % of control | [4] 101 % of control and 94 % of control

CC1(C)Cc2ccccc2/C1=C/c1ccccn1
inactive: [1] 98 % of control | [2] 100 % of control | [3] 108 % of control

NC1(C(=O)NCSc2ccccc2)CC=CCC1 (stereo not drawn)
inactive: dose: 45.5 mg/kg/injection, schedule: Q01DX005 (ip), vehicle: Klucel (hydroxypropylcellulose) (HPC) 97 % of control | dose: 91.0 mg/kg/injection, schedule: Q01DX005 (ip), vehicle: Klucel (hydroxypropylcellulose) (HPC) 103 % of control | dose: 182.0 mg/kg/injection, schedule: Q01DX005 (ip), vehicle: Klucel (hydroxypropylcellulose) (HPC) 96 % of control

CSc1nc(Cl)c2ncn(C3C=CC(OC(C)=O)CO3)c2n1 (stereo not drawn)
inactive: dose: 50.0 mg/kg/injection, schedule: Q01DX005 (ip), vehicle: Klucel (hydroxypropylcellulose) (HPC) 103 % of control | dose: 100.0 mg/kg/injection, schedule: Q01DX005 (ip), vehicle: Klucel (hydroxypropylcellulose) (HPC) 99 % of control | dose: 200.0 mg/kg/injection, schedule: Q01DX005 (ip), vehicle: Klucel (hydroxypropylcellulose) (HPC) 109 % of control

O=[N+]([O-])c1ccccc1/C(=N\O)c1cccs1
inactive: dose: 100.0 mg/kg/injection, schedule: Q04DX002 (ip), vehicle: Klucel (hydroxypropylcellulose) (HPC) 107 % of control | dose: 200.0 mg/kg/injection, schedule: Q04DX002 (ip), vehicle: Klucel (hydroxypropylcellulose) (HPC) 100 % of control

COc1ccc2c(c1OC)C(=C(C#N)C#N)N1CCc3cc4c(cc3C1=C2)OCO4
inactive: dose: 0.63 mg/kg/injection, schedule: Q01DX009 (ip), vehicle: distilled water + Tween-80 103 % of control | dose: 1.25 mg/kg/injection, schedule: Q01DX009 (ip), vehicle: distilled water + Tween-80 94 % of control | dose: 2.5 mg/kg/injection, schedule: Q01DX009 (ip), vehicle: distilled water + Tween-80 112 % of control | dose: 5.0 mg/kg/injection, schedule: Q01DX009 (ip), vehicle: distilled water + Tween-80 112 % of control | dose: 10.0 mg/kg/injection, schedule: Q01DX009 (ip), vehicle: distilled water + Tween-80 108 % of control | dose: 20.0 mg/kg/injection, schedule: Q01DX009 (ip), vehicle: distilled water + Tween-80 121 % of control

CCCCCCCCCCCCCCCCSc1ccc(N=Cc2ccc(N(CC)CC#N)cc2)cc1
inactive: [8] 97 % of control | [4] 94 % of control
